Laboratory results from ChEMBL document CHEMBL3046083, “Synthesis, characterization and antimicrobial evaluation of novel derivatives of isoniazid” (2012).
Values after ≈ are worked out from the molar mass of the structure shown.

Experiments:
Type in all cases: functional
[1] = system: Nakaseomyces glabratus; experiment: Antimicrobial activity against Candida glabrata ATCC 10233 by broth dilution method
[2] = system: Candida albicans; experiment: Antimicrobial activity against Candida albicans ATCC 10231 by broth dilution method
[3] = system: Escherichia coli; experiment: Antimicrobial activity against Escherichia coli ATCC 25922 after 24 hr by broth dilution method; settings: ATCC 25922, 24 h
[4] = system: Pseudomonas aeruginosa; experiment: Antimicrobial activity against Pseudomonas aeruginosa ATCC […] after 24 hr by broth dilution method
[5] = system: Staphylococcus aureus; experiment: Antimicrobial activity against Staphylococcus aureus ATCC 29213 after 24 hr by broth dilution method; settings: ATCC 29213, 24 h
[6] = system: Bacillus subtilis; experiment: Antimicrobial activity against Bacillus subtilis ATCC […] after 24 hr by broth dilution method
[7] = system: Nakaseomyces glabratus; experiment: Antimicrobial activity against Candida glabrata ATCC 10233 at 100 ug/ml after 24 to 48 hr by agar diffusion method; settings: read-out: DIZ
[8] = system: Candida albicans; experiment: Antimicrobial activity against Candida albicans ATCC 10231 at 100 ug/ml after 24 to 48 hr by agar diffusion method; settings: read-out: DIZ
[9] = system: Escherichia coli; experiment: Antimicrobial activity against Escherichia coli ATCC 25922 at 100 ug/ml after 24 to 48 hr by agar diffusion method; settings: read-out: DIZ
[10] = system: Pseudomonas aeruginosa; experiment: Antimicrobial activity against Pseudomonas aeruginosa ATCC […] at 100 ug/ml after 24 to 48 hr by agar diffusion method; settings: read-out: DIZ
[11] = system: Staphylococcus aureus; experiment: Antimicrobial activity against Staphylococcus aureus ATCC 29213 at 100 ug/ml after 24 to 48 hr by agar diffusion method; settings: read-out: DIZ
[12] = system: Bacillus subtilis; experiment: Antimicrobial activity against Bacillus subtilis ATCC […] at 100 ug/ml after 24 to 48 hr by agar diffusion method; settings: read-out: DIZ
[13] = system: Escherichia coli; experiment: Antimicrobial activity against Escherichia coli ATCC 25922 at 50 ug/ml after 24 to 48 hr by agar diffusion method; settings: read-out: DIZ
[14] = system: Pseudomonas aeruginosa; experiment: Antimicrobial activity against Pseudomonas aeruginosa ATCC […] at 50 ug/ml after 24 to 48 hr by agar diffusion method; settings: read-out: DIZ
[15] = system: Staphylococcus aureus; experiment: Antimicrobial activity against Staphylococcus aureus ATCC 29213 at 50 ug/ml after 24 to 48 hr by agar diffusion method; settings: read-out: DIZ
[16] = system: Bacillus subtilis; experiment: Antimicrobial activity against Bacillus subtilis ATCC […] at 50 ug/ml after 24 to 48 hr by agar diffusion method; settings: read-out: DIZ

Compound	MFC [1]	MIC [1]	MIC50 [1]	MFC [2]	MIC [2]	MIC50 [2]	MIC [3]	MIC50 [3]	MIC [4]	MIC50 [4]	MIC [5]	MIC50 [5]	MIC [6]	MIC50 [6]	zone of inhibition at 100 µg/mL [7]	zone of inhibition at 100 µg/mL [8]	zone of inhibition at 100 µg/mL [9]	zone of inhibition at 100 µg/mL [10]	zone of inhibition at 100 µg/mL [11]	zone of inhibition at 100 µg/mL [12]	further results
CCOc1c(/C=N\NC(=O)c2ccncc2)cccc1CN1CCCC1	100 µg/mL (≈ 284 µM)	12.5 µg/mL (≈ 35.5 µM)	12.8 µg/mL (≈ 36.3 µM)	25 µg/mL (≈ 70.9 µM)	12.5 µg/mL (≈ 35.5 µM)	6.4 µg/mL (≈ 18.2 µM)	6.25 µg/mL (≈ 17.7 µM)	3.2 µg/mL (≈ 9.08 µM)	12.5 µg/mL (≈ 35.5 µM)	6.4 µg/mL (≈ 18.2 µM)	12.5 µg/mL (≈ 35.5 µM)	6.4 µg/mL (≈ 18.2 µM)	25 µg/mL (≈ 70.9 µM)	12.8 µg/mL (≈ 36.3 µM)	19 mm	18 mm	27 mm	20 mm	26 mm	22 mm	–
CCOc1c(/C=N\NC(=O)c2ccncc2)cccc1CN1CCOCC1	50 µg/mL (≈ 136 µM)	12.5 µg/mL (≈ 33.9 µM)	12.8 µg/mL (≈ 34.7 µM)	25 µg/mL (≈ 67.9 µM)	12.5 µg/mL (≈ 33.9 µM)	6.4 µg/mL (≈ 17.4 µM)	6.25 µg/mL (≈ 17 µM)	3.2 µg/mL (≈ 8.69 µM)	12.5 µg/mL (≈ 33.9 µM)	6.4 µg/mL (≈ 17.4 µM)	6.25 µg/mL (≈ 17 µM)	3.2 µg/mL (≈ 8.69 µM)	12.5 µg/mL (≈ 33.9 µM)	6.4 µg/mL (≈ 17.4 µM)	21 mm	21 mm	31 mm	22 mm	32 mm	27 mm	–
CCCN(CCC)Cc1cccc(/C=N\NC(=O)c2ccncc2)c1OCC	100 µg/mL (≈ 261 µM)	12.5 µg/mL (≈ 32.7 µM)	12.8 µg/mL (≈ 33.5 µM)	50 µg/mL (≈ 131 µM)	25 µg/mL (≈ 65.4 µM)	12.8 µg/mL (≈ 33.5 µM)	12.5 µg/mL (≈ 32.7 µM)	6.4 µg/mL (≈ 16.7 µM)	12.5 µg/mL (≈ 32.7 µM)	6.4 µg/mL (≈ 16.7 µM)	25 µg/mL (≈ 65.4 µM)	6.4 µg/mL (≈ 16.7 µM)	25 µg/mL (≈ 65.4 µM)	12.8 µg/mL (≈ 33.5 µM)	15 mm	15 mm	22 mm	18 mm	22 mm	21 mm	–
CCOc1c(/C=N\NC(=O)c2ccncc2)cccc1CN1CCN(C)CC1	50 µg/mL (≈ 131 µM)	12.5 µg/mL (≈ 32.8 µM)	12.8 µg/mL (≈ 33.6 µM)	25 µg/mL (≈ 65.5 µM)	12.5 µg/mL (≈ 32.8 µM)	6.4 µg/mL (≈ 16.8 µM)	6.25 µg/mL (≈ 16.4 µM)	3.2 µg/mL (≈ 8.39 µM)	12.5 µg/mL (≈ 32.8 µM)	6.4 µg/mL (≈ 16.8 µM)	6.25 µg/mL (≈ 16.4 µM)	3.2 µg/mL (≈ 8.39 µM)	12.5 µg/mL (≈ 32.8 µM)	6.4 µg/mL (≈ 16.8 µM)	20 mm	22 mm	32 mm	22 mm	33 mm	26 mm	–
CCCCN(CCCC)Cc1cccc(/C=N\NC(=O)c2ccncc2)c1OCC	100 µg/mL (≈ 244 µM)	12.5 µg/mL (≈ 30.4 µM)	12.8 µg/mL (≈ 31.2 µM)	100 µg/mL (≈ 244 µM)	25 µg/mL (≈ 60.9 µM)	12.8 µg/mL (≈ 31.2 µM)	12.5 µg/mL (≈ 30.4 µM)	6.4 µg/mL (≈ 15.6 µM)	12.5 µg/mL (≈ 30.4 µM)	6.4 µg/mL (≈ 15.6 µM)	12.5 µg/mL (≈ 30.4 µM)	6.4 µg/mL (≈ 15.6 µM)	25 µg/mL (≈ 60.9 µM)	12.8 µg/mL (≈ 31.2 µM)	15 mm	15 mm	24 mm	19 mm	23 mm	21 mm	–
NYSTATIN	25 µg/mL	12.5 µg/mL	6.4 µg/mL	12.5 µg/mL	6.25 µg/mL	3.2 µg/mL	–	–	–	–	–	–	–	–	–	–	–	–	–	–	–
CCOc1c(/C=N\NC(=O)c2ccncc2)cccc1CN(CC)CC	100 µg/mL (≈ 282 µM)	25 µg/mL (≈ 70.5 µM)	25.6 µg/mL (≈ 72.2 µM)	25 µg/mL (≈ 70.5 µM)	25 µg/mL (≈ 70.5 µM)	12.8 µg/mL (≈ 36.1 µM)	25 µg/mL (≈ 70.5 µM)	12.8 µg/mL (≈ 36.1 µM)	25 µg/mL (≈ 70.5 µM)	12.8 µg/mL (≈ 36.1 µM)	25 µg/mL (≈ 70.5 µM)	12.8 µg/mL (≈ 36.1 µM)	25 µg/mL (≈ 70.5 µM)	12.8 µg/mL (≈ 36.1 µM)	14 mm	15 mm	20 mm	16 mm	21 mm	19 mm	–
CCOc1c(/C=N\NC(=O)c2ccncc2)cccc1CN1CCNCC1	50 µg/mL (≈ 136 µM)	12.5 µg/mL (≈ 34 µM)	12.8 µg/mL (≈ 34.8 µM)	25 µg/mL (≈ 68 µM)	12.5 µg/mL (≈ 34 µM)	6.4 µg/mL (≈ 17.4 µM)	6.25 µg/mL (≈ 17 µM)	3.2 µg/mL (≈ 8.71 µM)	12.5 µg/mL (≈ 34 µM)	6.4 µg/mL (≈ 17.4 µM)	3.12 µg/mL (≈ 8.49 µM)	3.2 µg/mL (≈ 8.71 µM)	12.5 µg/mL (≈ 34 µM)	6.4 µg/mL (≈ 17.4 µM)	23 mm	24 mm	33 mm	23 mm	34 mm	27 mm	–
CCOc1c(/C=N\NC(=O)c2ccncc2)cccc1CN(C)C	100 µg/mL (≈ 306 µM)	25 µg/mL (≈ 76.6 µM)	25.6 µg/mL (≈ 78.4 µM)	100 µg/mL (≈ 306 µM)	25 µg/mL (≈ 76.6 µM)	12.8 µg/mL (≈ 39.2 µM)	25 µg/mL (≈ 76.6 µM)	12.8 µg/mL (≈ 39.2 µM)	25 µg/mL (≈ 76.6 µM)	12.8 µg/mL (≈ 39.2 µM)	25 µg/mL (≈ 76.6 µM)	12.8 µg/mL (≈ 39.2 µM)	50 µg/mL (≈ 153 µM)	12.8 µg/mL (≈ 39.2 µM)	14 mm	13 mm	20 mm	15 mm	21 mm	17 mm	–
CC1(C)S[C@@H]2[C@H](NC(=O)[C@H](N)c3ccc(O)cc3)C(=O)N2[C@H]1C(=O)O [AMOXICILLIN]	–	–	–	–	–	–	3.12 µg/mL (≈ 8.54 µM)	1.6 µg/mL (≈ 4.38 µM)	6.25 µg/mL (≈ 17.1 µM)	3.2 µg/mL (≈ 8.76 µM)	3.12 µg/mL (≈ 8.54 µM)	1.62 µg/mL (≈ 4.43 µM)	6.25 µg/mL (≈ 17.1 µM)	3.2 µg/mL (≈ 8.76 µM)	–	–	–	–	–	–	zone of inhibition at 50 µg/mL [13]: 30 mm; zone of inhibition at 50 µg/mL [14]: 21 mm; zone of inhibition at 50 µg/mL [15]: 30 mm; zone of inhibition at 50 µg/mL [16]: 25 mm
CCOc1c(/C=N\NC(=O)c2ccncc2)cccc1CN1CCCCC1	100 µg/mL (≈ 273 µM)	12.5 µg/mL (≈ 34.1 µM)	12.8 µg/mL (≈ 34.9 µM)	100 µg/mL (≈ 273 µM)	12.5 µg/mL (≈ 34.1 µM)	12.8 µg/mL (≈ 34.9 µM)	12.5 µg/mL (≈ 34.1 µM)	6.4 µg/mL (≈ 17.5 µM)	12.5 µg/mL (≈ 34.1 µM)	6.4 µg/mL (≈ 17.5 µM)	12.5 µg/mL (≈ 34.1 µM)	6.4 µg/mL (≈ 17.5 µM)	25 µg/mL (≈ 68.2 µM)	12.8 µg/mL (≈ 34.9 µM)	16 mm	16 mm	25 mm	20 mm	25 mm	23 mm	–
CCOc1c(/C=N\NC(=O)c2ccncc2)cccc1CN(c1ccccc1)c1ccccc1	50 µg/mL (≈ 111 µM)	12.5 µg/mL (≈ 27.7 µM)	12.8 µg/mL (≈ 28.4 µM)	25 µg/mL (≈ 55.5 µM)	12.5 µg/mL (≈ 27.7 µM)	6.4 µg/mL (≈ 14.2 µM)	6.25 µg/mL (≈ 13.9 µM)	3.2 µg/mL (≈ 7.1 µM)	12.5 µg/mL (≈ 27.7 µM)	6.4 µg/mL (≈ 14.2 µM)	6.25 µg/mL (≈ 13.9 µM)	3.2 µg/mL (≈ 7.1 µM)	12.5 µg/mL (≈ 27.7 µM)	6.4 µg/mL (≈ 14.2 µM)	22 mm	21 mm	32 mm	22 mm	31 mm	26 mm	–
CCOc1ccccc1/C=N\NC(=O)c1ccncc1	100 µg/mL (≈ 371 µM)	25 µg/mL (≈ 92.8 µM)	25.6 µg/mL (≈ 95.1 µM)	50 µg/mL (≈ 186 µM)	50 µg/mL (≈ 186 µM)	25.6 µg/mL (≈ 95.1 µM)	50 µg/mL (≈ 186 µM)	25.6 µg/mL (≈ 95.1 µM)	25 µg/mL (≈ 92.8 µM)	12.8 µg/mL (≈ 47.5 µM)	25 µg/mL (≈ 92.8 µM)	12.8 µg/mL (≈ 47.5 µM)	50 µg/mL (≈ 186 µM)	25.6 µg/mL (≈ 95.1 µM)	11 mm	13 mm	18 mm	14 mm	19 mm	15 mm	–
